The experiment relates to P388 leukemia ip, CD2F1 mice, survival T/C. The experiment in a line: NCI In Vivo Anticancer Drug Screen. Data for tumor model P388 Leukemia (intraperitoneal) in CD2F1 (CDF1) mice. The settings on record: endpoint: median survival time, higher = longer survival. In short, it runs like this:
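Mice carrying the transplanted tumor received test compound or vehicle. Survival was recorded in each group, and the value is the treated-group measurement divided by that of the vehicle-treated control group.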

Setting [1] is: dose: 50.0 mg/kg/injection, schedule: Q01DX009 (ip), vehicle: Klucel (hydroxypropylcellulose) (HPC).
The mark [2] stands for this setting: dose: 50.0 mg/kg/injection, schedule: Q04DX002 (ip), vehicle: saline with Tween-80.
[3] abbreviates: dose: 100.0 mg/kg/injection, schedule: Q04DX002 (ip), vehicle: saline with Tween-80.
Setting [4] is: dose: 50.0 mg/kg/injection, schedule: Q01DX005 (ip), vehicle: Klucel (hydroxypropylcellulose) (HPC).
The mark [5] stands for this setting: dose: 100.0 mg/kg/injection, schedule: Q01DX005 (ip), vehicle: Klucel (hydroxypropylcellulose) (HPC).
[6] abbreviates: dose: 200.0 mg/kg/injection, schedule: Q01DX005 (ip), vehicle: Klucel (hydroxypropylcellulose) (HPC).
The mark [7] stands for this setting: dose: 25.0 mg/kg/injection, schedule: Q01DX009 (ip), vehicle: saline with Tween-80.
Setting [8] is: dose: 50.0 mg/kg/injection, schedule: Q01DX009 (ip), vehicle: saline with Tween-80.
Where [9] appears, read: dose: 100.0 mg/kg/injection, schedule: Q01DX009 (ip), vehicle: saline with Tween-80.
Setting [10] is: dose: 50.0 mg/kg/injection, schedule: Q01DX009 (ip), vehicle: saline.
[11] abbreviates: dose: 50.0 mg/kg/injection, schedule: Q01DX009 (ip), vehicle: suspension in saline.
[12] abbreviates: dose: 200.0 mg/kg/injection, schedule: Q01DX009 (ip), vehicle: saline with Tween-80.

Where “and” joins values, the source holds several entries; their conditions need not be identical. Identical values can stand only once. Inconclusive results and toxic doses are left out.

For the molecule `CCOC(=O)C1(C(=O)OCC)CCC1`, the T/C runs as follows: under setting [1], 100 % of control; (dose: 100.0 mg/kg/injection, schedule: Q01DX009 (ip), vehicle: Klucel (hydroxypropylcellulose) (HPC)) 92 % of control; (dose: 200.0 mg/kg/injection, schedule: Q01DX009 (ip), vehicle: Klucel (hydroxypropylcellulose) (HPC)) 96 % of control; (dose: 400.0 mg/kg/injection, schedule: Q01DX009 (ip), vehicle: Klucel (hydroxypropylcellulose) (HPC)) 101 % of control.
Turning to `C1CN(/N=N/N2CCC2)C1`, the T/C (dose: 6.25 mg/kg/injection, schedule: Q01DX005 (ip), vehicle: Klucel (hydroxypropylcellulose) (HPC)) was 98 % of control; the T/C (dose: 12.5 mg/kg/injection, schedule: Q01DX005 (ip), vehicle: Klucel (hydroxypropylcellulose) (HPC)) was 100 % of control; the T/C (dose: 25.0 mg/kg/injection, schedule: Q01DX005 (ip), vehicle: Klucel (hydroxypropylcellulose) (HPC)) is 102 % of control.
Take `O=C1c2ccccc2C(=O)c2c(NCCNCCO)ccc(NCCO)c21`: the T/C (dose: 5.0 mg/kg/injection, schedule: Q04DX002 (ip), vehicle: saline) was 115 % of control.
Regarding `NC(=S)N/N=C1/C(=O)N(c2ccc(S(N)(=O)=O)cc2)C(=O)C1C(=O)Nc1ccc(S(N)(=O)=O)cc1` (stereo not drawn), the T/C by setting is: (dose: 25.0 mg/kg/injection, schedule: Q04DX002 (ip), vehicle: saline with Tween-80) 104 % of control; under setting [2], 100 % of control; under setting [3], 99 % of control and 100 % of control.
For `[Mn+2].[O-]c1ccccc1/C=N/c1ccccn1.[O-]c1ccccc1/C=N/c1ccccn1.[OH3+].[OH3+]`, the T/C was 97 % of control under setting [2]; 96 % of control under setting [3]; 94 % of control (dose: 200.0 mg/kg/injection, schedule: Q04DX002 (ip), vehicle: saline with Tween-80).
For `Nc1ccc2nc3ccc(O)cc3nc2c1`, the T/C is 103 % of control under setting [4], 108 % of control under setting [5] and 105 % of control under setting [6].
Regarding `N#CC12C3C4C5C3C1n1c(=O)n(-c3ccccc3)c(=O)n1C5C42` (stereo not drawn), the T/C is 106 % of control (dose: 100.0 mg/kg/injection, schedule: Q04DX003 (ip), vehicle: Klucel (hydroxypropylcellulose) (HPC)); 106 % of control (dose: 200.0 mg/kg/injection, schedule: Q04DX003 (ip), vehicle: Klucel (hydroxypropylcellulose) (HPC)); 107 % of control (dose: 400.0 mg/kg/injection, schedule: Q04DX003 (ip), vehicle: Klucel (hydroxypropylcellulose) (HPC)).
Consider `CC(=O)OC1CC(C)(C2OC(=O)CC2CO)C2=CC(=O)OC3CC4C(C)(O)C=CC(=O)C4(C)C1C23C` (stereo not drawn), for which the T/C was 100 % of control (dose: 12.5 mg/kg/injection, schedule: Q01DX001 (ip), vehicle: Klucel (hydroxypropylcellulose) (HPC)); 100 % of control (dose: 25.0 mg/kg/injection, schedule: Q01DX001 (ip), vehicle: Klucel (hydroxypropylcellulose) (HPC)); 102 % of control (dose: 50.0 mg/kg/injection, schedule: Q01DX001 (ip), vehicle: Klucel (hydroxypropylcellulose) (HPC)); 105 % of control (dose: 100.0 mg/kg/injection, schedule: Q01DX001 (ip), vehicle: Klucel (hydroxypropylcellulose) (HPC)).
`CN(C)c1nc(=O)c2ccccc2o1`: the T/C is 100 % of control (dose: 15.0 mg/kg/injection, schedule: Q01DX005 (ip), vehicle: saline); 97 % of control (dose: 30.0 mg/kg/injection, schedule: Q01DX005 (ip), vehicle: saline); 101 % of control and 95 % of control (dose: 60.0 mg/kg/injection, schedule: Q01DX005 (ip), vehicle: saline).
In the case of `CCC[CH2][Sn]([F])([CH2]CCC)[O][Sn]([F])([CH2]CCC)[CH2]CCC`, the T/C was 101 % of control (dose: 100.0 mg/kg/injection, schedule: Q04DX003 (ip), vehicle: saline) and 105 % of control (dose: 200.0 mg/kg/injection, schedule: Q04DX003 (ip), vehicle: saline).
As to `CC(C)=CC[P+](C)(c1ccccc1)c1ccccc1`, the T/C was 101 % of control (dose: 1.56 mg/kg/injection, schedule: Q04DX003 (ip), vehicle: saline); 100 % of control (dose: 3.13 mg/kg/injection, schedule: Q04DX003 (ip), vehicle: saline); 89 % of control (dose: 6.25 mg/kg/injection, schedule: Q04DX003 (ip), vehicle: saline).
On to `C=C1C(=O)OC2/C=C(\C)CC/C=C(/C=O)C(O)C(OC(=O)C(C)C)C12` (stereo not drawn), for which the T/C was 112 % of control (dose: 5.0 mg/kg/injection, schedule: Q01DX009 (ip), vehicle: other) and 94 % of control (dose: 20.0 mg/kg/injection, schedule: Q01DX009 (ip), vehicle: other).
On to `O=c1oc(-c2nc3sc4c(c3c(=O)o2)CCCC4)nc2sc3c(c12)CCCC3`, for which the T/C by setting is: under setting [4], 100 % of control; under setting [5], 100 % of control; under setting [6], 93 % of control.
Consider `C#CC(=O)CCC`, for which the T/C by setting is: (dose: 3.75 mg/kg/injection, schedule: Q01DX005 (ip), vehicle: saline with Tween-80) 113 % of control; (dose: 7.5 mg/kg/injection, schedule: Q01DX005 (ip), vehicle: saline with Tween-80) 106 % of control; (dose: 15.0 mg/kg/injection, schedule: Q01DX005 (ip), vehicle: saline with Tween-80) 105 % of control.
Turning to `COC(=O)c1cnc(N)n1C`, the T/C (dose: 12.5 mg/kg/injection, schedule: Q01DX009 (ip), vehicle: distilled water + Tween-80) was 101 % of control.
As to `O=C(O)c1nc2cn1/C=C\C=NCC1=CN3C=CC=NC3(C(=O)O)N1C2` (stereo not drawn), the T/C reads like this: under setting [7], 101 % of control; under setting [8], 109 % of control; under setting [9], 95 % of control.
Consider `Cc1cc[n+](CC(N)=O)cc1`, for which the T/C reads like this: (dose: 12.5 mg/kg/injection, schedule: Q01DX009 (ip), vehicle: saline) 96 % of control; (dose: 25.0 mg/kg/injection, schedule: Q01DX009 (ip), vehicle: saline) 94 % of control; under setting [10], 96 % of control.
In the case of `Clc1ccc2c(NCCCC3CCCN4CCCCC34)ccnc2c1` (stereo not drawn), the T/C under setting [4] is 99 % of control and the T/C under setting [5] is 98 % of control.
`COc1cccc2c1NC(OC)C1CC(/C=C/C(=O)N(C)C)=CN1C2=O` (stereo not drawn): the T/C (dose: 320.0 micrograms/kg/injection, schedule: Q01DX005 (ip), vehicle: saline with Tween-80) was 155 % of control.
`Fc1ccc(NC(=S)SCc2ccco2)cc1`: the T/C reads like this: under setting [11], 101 % of control; (dose: 100.0 mg/kg/injection, schedule: Q01DX009 (ip), vehicle: suspension in saline) 98 % of control; (dose: 200.0 mg/kg/injection, schedule: Q01DX009 (ip), vehicle: suspension in saline) 92 % of control.
In the case of `CSCNC(=S)Nc1ccc(Cl)cc1`, the T/C under setting [1] was 94 % of control.
`COc1nc(NC2OC(CO)C(O)C2O)cc(=O)n1C` (stereo not drawn): the T/C is 93 % of control (dose: 60.0 mg/kg/injection, schedule: Q01DX005 (ip), vehicle: saline with Tween-80) and 94 % of control (dose: 120.0 mg/kg/injection, schedule: Q01DX005 (ip), vehicle: saline with Tween-80).
As for `CN(C)CCSc1sc(N)nc1-c1ccccc1`, the T/C under setting [10] is 100 % of control; the T/C (dose: 100.0 mg/kg/injection, schedule: Q01DX009 (ip), vehicle: saline) was 98 % of control; the T/C (dose: 200.0 mg/kg/injection, schedule: Q01DX009 (ip), vehicle: saline) is 114 % of control.
With `COc1ccc(/C(C#N)=C/c2ccccc2)cc1`, the T/C (dose: 6.25 mg/kg/injection, schedule: Q01DX009 (ip), vehicle: suspension in saline) is 99 % of control and 103 % of control and 107 % of control; the T/C (dose: 12.5 mg/kg/injection, schedule: Q01DX009 (ip), vehicle: suspension in saline) is 100 % of control and 108 % of control and 114 % of control; the T/C under setting [7] is 86 % of control; the T/C (dose: 25.0 mg/kg/injection, schedule: Q01DX009 (ip), vehicle: suspension in saline) was 100 % of control and 92 % of control and 98 % of control; the T/C under setting [8] is 91 % of control; the T/C under setting [11] was 107 % of control and 124 % of control. Also, the T/C reads like this: under setting [9], 91 % of control; under setting [12], 101 % of control.
Regarding `CC(C)(CO)COC1OCN(C(C)(C)C)CC1(C)C` (stereo not drawn), the T/C was 100 % of control under setting [8], 110 % of control under setting [9] and 112 % of control under setting [12].
Take `NC(=S)N/N=C/c1[nH]c2cc(Br)c(Br)cc2c1Br`: the T/C by setting is: (dose: 100.0 mg/kg/injection, schedule: Q01DX001 (ip), vehicle: saline with Tween-80) 91 % of control; (dose: 200.0 mg/kg/injection, schedule: Q01DX001 (ip), vehicle: saline with Tween-80) 91 % of control; (dose: 400.0 mg/kg/injection, schedule: Q01DX001 (ip), vehicle: saline with Tween-80) 98 % of control.
